Experimental findings from patent US20020004500A1, “Vasopeptidase Inhibitors to treat isolated systolic hypertension” (priority 2000, published 2002) are described below.

Each structure is given as a SMILES string.

One assay concerns neutral endopeptidase. Kind of assay: Urinary atrial natriuretic peptide excretion rate in subjects with isolated systolic hypertension. The class given is in vivo, human. The following applies: once daily 80 mg, at 24 hours after dosing.
In assay [1] the test system is subjects with isolated systolic hypertension. Kind of assay: Omapatrilat in subjects with isolated systolic hypertension: trough seated blood pressure, forced- and elective-dose titration versus placebo. The assay is classed as in vivo, human. The following applies: for Δtrough seated diastolic blood pressure / Δtrough seated systolic blood pressure: week 9, change from baseline, trough 24±3 hours post dose; for percentage of normalized subjects (trough seated systolic blood pressure less than 140 mm Hg): week 9. Here is the method:
Omapatrilat was studied in subjects with isolated systolic hypertension (seated systolic blood pressure 160-199 mm Hg and diastolic blood pressure less than 90 after 4 weeks of single-blind placebo lead-in). Both a forced-dose titration (at Week 1) and an elective-dose titration (at Week 9) design were used to compare the change from baseline, relative to placebo, in trough (24±3 hours post dose) seated systolic blood pressure after 9 weeks and 13 weeks of once-daily oral administration of 3 dose regimens of omapatrilat. Treatment regimens consisted of omapatrilat 10 mg lead-in maintained at 10 mg at week 1, electively titrated to 20 mg at week 9 for subjects with a seated systolic blood pressure greater than or equal to 140 mm Hg, or omapatrilat 20 mg lead-in maintained at 20 mg at week 1, electively titrated to 40 mg at week 9 for subjects with a seated systolic blood pressure greater than or equal to 140 mm Hg, or omapatrilat 20 mg lead-in increased to 40 mg at week 1, electively titrated to 80 mg at week 9 for subjects with a seated systolic blood pressure greater than or equal to 140 mm Hg. Placebo was mock titrated at weeks 1 and week 9.
429 subjects were randomized. The mean age was 67 years, and mean baseline blood pressure was 169/82 mm Hg. The primary efficacy objective was to compare the change from baseline, relative to placebo, in trough (24±3 hours post dose) seated systolic blood pressure after 9 weeks of once-daily oral administration of 3 dose regimens of omapatrilat.

Setting [2] is: omapatrilat 10/10 mg once-daily oral.
[3] abbreviates: omapatrilat 20/20 mg once-daily oral.
Where [4] appears, read: omapatrilat 20/40 mg once-daily oral.

Turning to `O=C(N[C@H]1CCSC2CCC[C@@H](C(=O)O)N2C1=O)C(S)Cc1ccccc1` (relative stereo) [Omapatrilat, [4S-[4α(R*), 7α, 10aβ]]-octahydro-4-[(2-mercapto-1-oxo-3-phenylpropyl)amino]-5-oxo-7H-pyrido[2,1-b][1,3]thiazepine-7-carboxylic acid], the “urinary atrial natriuretic peptide excretion rate” value in the assay on neutral endopeptidase was “persistent elevation”. In addition, the “systolic and diastolic blood pressure reductions at trough versus placebo regimen” value in assay [1] (10/10/20 mg, 20/20/40 mg and 20/40/80 mg once-daily for 13 weeks, predominately elderly subjects) is “greater systolic blood pressure and diastolic blood pressure reductions at trough than a regimen of placebo”. Besides, the “systolic blood pressure reductions versus placebo” value in assay [1] (Week 13, after elective titration) is on record as “Additional small reductions in systolic blood pressure versus placebo”. The “Δtrough seated diastolic blood pressure” value in assay [1] (setting [2]) is −1.8; in assay [1] (setting [3]), −2.6; in assay [1] (setting [4]), −4.6. For the same compound, the “Δtrough seated systolic blood pressure” value in assay [1] (setting [2]) is recorded as −15.9; in assay [1] (setting [3]), −23.1; in assay [1] (setting [4]), −26.1. Besides, the figures for the “percentage of normalized subjects (trough seated systolic blood pressure less than 140 mm Hg)” value in assay [1] (omapatrilat 10/10 mg), in assay [1] (omapatrilat 20/20 mg) and in assay [1] (omapatrilat 20/40 mg) were 28%, 51% and 47%, respectively. Besides, the “systolic and diastolic blood pressure reductions versus placebo regimen” value in assay [1] (week 9, all 3 omapatrilat regimens) is “greater systolic and diastolic blood pressure reductions than the placebo regimen”.
